Read-outs that look alike come from different tables or passages of the source.
Assays:
[1] = molecular target: T1, androgen receptor (AR) splicing variant AR-v7 (Homo sapiens, UniProt P10275); assay: Degradation activity on androgen receptor splicing variant AR-v7 in 22RV1 cells (ELISA); type: cell-based; conditions: AR-v7 degradation in 22RV1 cells, 48 h, class symbols
T1 construct: The degradation activity of compounds on AR-v7 in 22RV1 cells; host or cells: 22RV1 cells
T1 sequence (P10275 1-644 isoform P10275-3): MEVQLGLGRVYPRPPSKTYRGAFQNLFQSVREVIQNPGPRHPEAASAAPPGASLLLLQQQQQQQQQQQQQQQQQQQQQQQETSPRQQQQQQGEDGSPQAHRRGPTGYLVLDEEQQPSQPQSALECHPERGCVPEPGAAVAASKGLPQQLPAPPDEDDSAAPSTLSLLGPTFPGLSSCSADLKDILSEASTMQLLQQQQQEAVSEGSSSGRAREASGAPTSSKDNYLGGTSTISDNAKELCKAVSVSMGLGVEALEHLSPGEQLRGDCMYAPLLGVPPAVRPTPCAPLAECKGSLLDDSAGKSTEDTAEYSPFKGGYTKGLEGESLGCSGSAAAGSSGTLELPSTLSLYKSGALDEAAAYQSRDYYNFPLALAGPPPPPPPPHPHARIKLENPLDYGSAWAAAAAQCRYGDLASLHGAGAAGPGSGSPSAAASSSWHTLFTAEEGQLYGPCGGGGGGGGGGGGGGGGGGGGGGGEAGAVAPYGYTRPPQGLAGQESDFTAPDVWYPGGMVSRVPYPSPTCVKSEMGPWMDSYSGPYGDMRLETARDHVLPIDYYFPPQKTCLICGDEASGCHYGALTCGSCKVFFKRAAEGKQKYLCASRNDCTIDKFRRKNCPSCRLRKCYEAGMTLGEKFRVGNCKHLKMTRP

[2] = Pharmacokinetics in mice (plasma exposure after oral administration); type: in vivo; conditions: mouse, ICR mice, oral (i.g.) 3 mg/kg, read-out: After oral administration of 3 mg/kg, mouse plasma exposure AUCinf
Experimental: • LC-20AD high performance liquid chromatography (SHIMADZU, Japan) • API4000 triple quadrupole mass spectrometer (Applied Biosystem, USA) • Phenix Winnolin Pharmacokinetic software (Version 6.3, Certara, USA) • High speed freezing centrifuge (Thermo Fisher Scientific) • Analytical balance (Sartorius, SECURA225D-ICN) • ICR mice (Chengdu Dossy Experimental Animals CO., LTD.)
A suitable amount of drug was accurately weighed, and then the medium (5% DMSO, 15% HS-15, 80% DSW) was added to prepare the solution at a concentration of 0.1 mg/ml (i.v.) and 0.3 mg/ml (i.g.).
18 healthy adult ICR mice were divided into two groups (9 mice for i.v. group; 9 mice for i.g. group), and administered by tail vein or by gavage after fasting overnight (free drinking water); using the satellite blood collection method, 3 animals were collected at each time point, and then 0.1 ml of blood obtained at different time points was anticoagulated with EDTA-K2, centrifuged at 4° C. for 5 min to separate the plasma, and stored at −80° C. for detection. The sampling time points after i.v. administration were 5 min, 15 min, 0.5 h, 1 h, 2 h, 4 h, 8 h, 12 h, and 24 h; while the sampling time points for i.g. group were before administration (0 h) as well as 0.5 h, 1 h, 2 h, 4 h, 6 h, 8 h, 12 h, and 24 h after administration. Then, the drug concentration in plasma was determined by LC/MS/MS.

[3] = tested on: 22RV1 cells
Experimental: • 22RV1 cell lines (Cobioer, CBP6034) • Penicillin-Streptomycin (Hyclone, Cat. No. SV30010) • Cell counting kit-8 (Signalway Antibody, Cat. No. CP002)
Then, two wells were set for each concentration. 20 μL of the diluted compound solution was added to the cell culture well, and then the plate was gently shaken to mix. In addition, the experiment included 3 negative control wells only containing cells and 3 blank control wells only containing culture medium.

[4] = Homo sapiens, 22Rv1, 144 h, read-out: 22RV1 IC50 (nM), 22RV1 cells, 6 days culture, CCK-8, OD 450 nm

Work on `Cc1nc(-c2nccc(COc3ccc(C(C)(C)c4ccc(O[C@H]5C[C@H](Nc6ccc7c(c6)C(=O)N(C6CCC(=O)NC6=O)C7=O)C5)cc4)cc3)n2)no1` (stereo partly drawn) [Example 279] yielded a DC50 [1] of under 10 nM, an AUC(0-inf) [2] of 5000 to 30000 ng·h/mL and an IC50 [3, 4] of 4 nM.

Molecule `CC(C)(c1ccc(Oc2ccc(-n3nccn3)nc2)cc1)c1ccc(O[C@H]2C[C@H](Nc3ccc4c(c3)C(=O)N(C3CCC(=O)NC3=O)C4=O)C2)cc1` (stereo partly drawn) [Example 206, 5-((1r,3r)-3-(4-(2-(4-((6-(2H-1,2,3-triazol-2-yl)pyridin-3-yl)oxy)phenyl)propan-2-ylphenoxy)cyclobutyl)amino)-2-(2,6-dioxopiperidin-3-yl)isoindolin-1,3-dione] has a DC50 [1] of under 10 nM, an AUC(0-inf) [2] of 5000 to 30000 ng·h/mL and an IC50 [3, 4] of 10 nM.

With `COc1ncc2c(n1)CN(c1ccc(C(C)(C)c3ccc(OC4CC(Nc5ccc6c(c5)C(=O)N(C5CCC(=O)NC5=O)C6=O)C4)cc3)cc1)CC2` (stereo not drawn) [Example 188] the DC50 [1] was under 10 nM, the AUC(0-inf) [2] was 1000 to 5000 ng·h/mL and the IC50 [3, 4] was 12 nM.

`CC(C)(c1ccc(Oc2ccc(-n3nccn3)nn2)cc1)c1ccc(O[C@H]2C[C@H](Nc3ccc4c(c3)C(=O)N(C3CCC(=O)NC3=O)C4=O)C2)cc1` (stereo partly drawn) [Example 324] gave a DC50 [1] of under 10 nM, an AUC(0-inf) [2] of 5000 to 30000 ng·h/mL and an IC50 [3, 4] of 4 nM.

For `O=C1CCC(N2C(=O)c3ccc(N[C@H]4C[C@H](Oc5ccc(C6(c7ccc(OCc8ccnc(N9CC%10(COC%10)C9)n8)cc7)COC6)cc5)C4)cc3C2=O)C(=O)N1` (stereo partly drawn) [Example 355, 5-(((1r,3r)-3-(4-(3-(4-((2-(2-oxa-6-azaspiro[3.3]heptane-6-yl)pyrimidin-4-yl)methoxy)phenyl)oxetane-3-yl)phenoxy)cyclobutyl)amino)-2-(2,6-dioxopiperidin-3-yl)isoindolin-1,3-dione], the DC50 [1] was under 10 nM, the AUC(0-inf) [2] was 5000 to 30000 ng·h/mL and the IC50 [3, 4] was 2 nM.

`CC(O)c1ccc(Oc2ccc(C(C)(C)c3ccc(O[C@H]4C[C@H](Nc5ccc6c(c5)C(=O)N(C5CCC(=O)NC5=O)C6=O)C4)cc3)cc2)nn1` (stereo partly drawn) [Example 125] gave a DC50 [1] of under 10 nM, an AUC(0-inf) [2] of 5000 to 30000 ng·h/mL and an IC50 [3, 4] of 10 nM.

`O=C1CCC(N2C(=O)c3ccc(N[C@H]4C[C@H](Oc5ccc(C6(c7ccc(OCc8ccnc(N9CC%10(COC%10)C9)n8)cc7)CCC6)cc5)C4)cc3C2=O)C(=O)N1` (stereo partly drawn) [Example 358, 5-(((1r,3r)-3-(4-(1-(4-((2-(2-oxa-6-azaspiro[3.3]heptane-6-yl)pyrimidin-4-yl)methoxy)phenyl)cyclobutyl)phenoxy)cyclobutyl)amino)-2-(2,6-dioxopiperidin-3-yl)isoindolin-1,3-dione] gave a DC50 [1] of under 10 nM, an AUC(0-inf) [2] of 1000 to 5000 ng·h/mL and an IC50 [3, 4] of 9 nM.

In the case of `Cc1nc(-c2ccnc(Oc3ccc(C(C)(C)c4ccc(O[C@H]5C[C@H](Nc6ccc7c(c6)C(=O)N(C6CCC(=O)NC6=O)C7=O)C5)cc4)cc3)n2)no1` (stereo partly drawn) [Example 166], the DC50 [1] is reported as under 10 nM, the AUC(0-inf) [2] is reported as 5000 to 30000 ng·h/mL and the IC50 [3, 4] is reported as 6 nM.

Molecule `Cc1nnc(-c2ncc(Oc3ccc(C4(c5ccc(O[C@H]6C[C@H](Nc7ccc8c(c7)C(=O)N(C7CCC(=O)NC7=O)C8=O)C6)cc5)CCCC4)cc3)cn2)o1` (stereo partly drawn) [Example 483] has a DC50 [1] of under 10 nM, an AUC(0-inf) [2] of 5000 to 30000 ng·h/mL and an IC50 [3, 4] of 2 nM.

`CNC(=O)c1nccc(COc2ccc(C(C)(C)c3ccc(OCCCNc4ccc5c(c4)C(=O)N(C4CCC(=O)NC4=O)C5=O)cc3)cc2)n1` (stereo not drawn) [Example 183, 4-((4-(2-(4-(3-((2-(2,6-dioxopiperidin-3-yl)-1,3-dioxoisoindolin-5-yl)amino)propoxy)phenyl)propan-2-yl)phenoxy)methyl)-N-methylpyrimidin-2-carbonylamine] showed a DC50 [1] of 11 to 100 nM, an AUC(0-inf) [2] of 100 to 1000 ng·h/mL and an IC50 [3, 4] of 20 nM.

`C=CC(c1ccc(Oc2ccc(-n3nccn3)nn2)cc1)c1ccc(O[C@H]2C[C@H](Nc3ccc4c(c3)C(=O)N(C3CCC(=O)NC3=O)C4=O)C2)cc1` (stereo partly drawn) [Example 371, 5-(((1r,3r)-3-(4-(1-(4-((6-(2H-1,2,3-triazole-2-yl)pyridazine-3-yl)oxy)phenyl)allyl)phenoxy)cyclobutyl)amino)-2-(2,6-dioxopiperidin-3-yl)isoindolin-1,3-dione] gave a DC50 [1] of under 10 nM, an AUC(0-inf) [2] of 5000 to 30000 ng·h/mL and an IC50 [3, 4] of 9 nM.

Work on `CC(C)(c1ccc(Oc2cnc(N3CC4(COC4)C3)nc2)cc1)c1ccc(O[C@H]2C[C@H](Nc3ccc4c(c3)C(=O)N(C3CCC(=O)NC3=O)C4=O)C2)cc1` (stereo partly drawn) [Example 248] yielded a DC50 [1] of under 10 nM, an AUC(0-inf) [2] of 1000 to 5000 ng·h/mL and an IC50 [3, 4] of 23 nM.

`CC(C)(c1ccc(OCc2ccnc(-c3nnco3)n2)cc1)c1ccc(O[C@H]2C[C@@H](Nc3ccc4c(c3)C(=O)N(C3CCC(=O)NC3=O)C4=O)C2)cc1` (stereo partly drawn) [Example 464, 5-(((1s,3s)-3-(4-(2-(4-((2-(1,3,4-oxadiazol-2-yl)pyrimidin-4-yl)methoxy)phenyl)propan-2-yl)phenoxy)cyclobutyl)amino)-2-(2,6-dioxopiperidin-3-yl)isoindolin-1,3-dione] gave a DC50 [1] of under 10 nM, an AUC(0-inf) [2] of 100 to 1000 ng·h/mL and an IC50 [3, 4] of 4 nM.

Work on `C=CC(c1ccc(OCc2ccnc(N3CC4(COC4)C3)n2)cc1)c1ccc(O[C@H]2C[C@H](Nc3ccc4c(c3)C(=O)N(C3CCC(=O)NC3=O)C4=O)C2)cc1` (stereo partly drawn) [Example 367] yielded a DC50 [1] of under 10 nM, an AUC(0-inf) [2] of 1000 to 5000 ng·h/mL and an IC50 [3, 4] of 8 nM.

Molecule `CC(C)(c1ccc(OCc2ccnc(N3CC4(COC4)C3)n2)cc1)c1ccc(OC[C@@H]2CCN2c2ccc3c(c2)C(=O)N(C2CCC(=O)NC2=O)C3=O)cc1` (stereo partly drawn) [Example 312, 5-((S)-2-((4-(2-(4-((2-(2-oxa-6-azaspiro[3.3]heptan-6-yl)pyrimidin-4-yl)methoxy)phenyl)propan-2-yl)phenoxy)methyl)azetidin-1-yl)-2-(2,6-dioxopiperidin-3-yl)isoindolin-1,3-dione] has a DC50 [1] of under 10 nM, an AUC(0-inf) [2] of 100 to 1000 ng·h/mL and an IC50 [3, 4] of 22 nM.

`CCC(CC)(c1ccc(Oc2cnc(-c3noc(C)n3)nc2)cc1)c1ccc(O[C@H]2C[C@@H](Nc3ccc4c(c3)C(=O)N(C3CCC(=O)NC3=O)C4=O)C2)cc1` (stereo partly drawn) [Example 553] showed a DC50 [1] of under 10 nM, an AUC(0-inf) [2] of 5000 to 30000 ng·h/mL and an IC50 [3, 4] of 15 nM.

Molecule `CC(C)(c1ccc(CN2CC(Nc3ccc4c(c3)C(=O)N(C3CCC(=O)NC3=O)C4=O)C2)cc1)c1ccc(OCc2ccnc(N3CC4(COC4)C3)n2)cc1` (stereo not drawn) [Example 502] has a DC50 [1] of under 10 nM, an AUC(0-inf) [2] of 1000 to 5000 ng·h/mL and an IC50 [3, 4] of 12 nM.

In the case of `Cc1nc(-c2ncc(Oc3ccc(C(C)c4ccc(O[C@H]5C[C@H](Nc6ccc7c(c6)C(=O)N(C6CCC(=O)NC6=O)C7=O)C5)cc4)cc3)cn2)no1` (stereo partly drawn) [Example 99], the DC50 [1] is reported as under 10 nM, the AUC(0-inf) [2] is reported as 5000 to 30000 ng·h/mL and the IC50 ([3]; read-out: 22RV1 IC50, 22RV1 cells, 6 days culture, CCK-8, OD 450 nm) is reported as 17 nM.

`Cc1nc(-c2ccc(Oc3ccc(C(C)(C)c4ccc(O[C@H]5C[C@H](Nc6ccc7c(c6)C(=O)N(C6CCC(=O)NC6=O)C7=O)C5)cc4)cc3)nn2)no1` (stereo partly drawn) [Example 328] gave a DC50 [1] of 11 to 100 nM, an AUC(0-inf) [2] of 5000 to 30000 ng·h/mL and an IC50 [3, 4] of 5 nM.

`O=C1CCC(N2C(=O)c3ccc(N[C@H]4C[C@H](Oc5ccc(S(=O)(=O)c6ccc(OCc7ccnc(N8CC9(COC9)C8)n7)cc6)cc5)C4)cc3C2=O)C(=O)N1` (stereo partly drawn) [Example 362, 5-(((1r,3r)-3-(4-((4-((2-(2-oxa-6-azaspiro[3.3]heptane-6-yl)pyrimidin-4-yl)methoxy)phenyl)sulfonyl)phenoxy)cyclobutyl)amino)-2-(2,6-dioxopiperidin-3-yl)isoindolin-1,3-dione] gave a DC50 [1] of under 10 nM, an AUC(0-inf) [2] of 100 to 1000 ng·h/mL and an IC50 [3, 4] of 20 nM.

With `CC(C)(c1ccc(Oc2cc(F)cnc2-n2ccnn2)cc1)c1ccc(O[C@H]2C[C@H](Nc3ccc4c(c3)C(=O)N(C3CCC(=O)NC3=O)C4=O)C2)cc1` (stereo partly drawn) [Example 516] the DC50 [1] was under 10 nM, the AUC(0-inf) [2] was 1000 to 5000 ng·h/mL and the IC50 [3, 4] was 10 nM.

Work on `Cc1noc(-c2nccc(COc3ccc(C(C)(C)c4ccc(O[C@H]5C[C@@H](Nc6ccc7c(c6)C(=O)N(C6CCC(=O)NC6=O)C7=O)C5)cc4)cc3)n2)n1` (stereo partly drawn) [Example 251] yielded a DC50 [1] of under 10 nM, an AUC(0-inf) [2] of 1000 to 5000 ng·h/mL and an IC50 [3, 4] of 6 nM.
